Patent publication US20230340011A1 (Asteroid Therapeutics, priority 2022, published 2023)
Counter-ions that a name gives are not always drawn.

Key:
SREBP-2 = SREBP-2 (Homo sapiens (Human), UniProt Q12772); experiment: In vitro assay SREBP-2: PathHunter U2OS SREBP-2 Nuclear Translocation Cell Line, U18666A-stimulated; format: cell-based; details: PathHunter U2OS SREBP-2 nuclear translocation cells, U18666A 10 μM, overnight (16 hours)
LXRβ = LXRβ (Homo sapiens (Human), UniProt P55055); experiment: In vitro assay LXRβ: PathHunter NHR CHO cells, LXRβ / Steroid Receptor Co-activator Peptide enzyme fragment complementation; format: cell-based; details: PathHunter NHR CHO cells, full-length human LXRβ and SRCP, chemiluminescent signal; read-out: LXRβ PPI
How it was run: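 Enzyme fragment complementation read-out: CHO cells stably expressing ProLink-tagged full-length human LXRβ plus nuclear enzyme acceptor–SRCP fusion, seeded and held overnight at 37° C. Medium with charcoal-dextran filtered serum; final vehicle 1%. Chemiluminescence measured after signal generation.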

LXRβ, sequence (P55055 whole entry, the tested form may be a part): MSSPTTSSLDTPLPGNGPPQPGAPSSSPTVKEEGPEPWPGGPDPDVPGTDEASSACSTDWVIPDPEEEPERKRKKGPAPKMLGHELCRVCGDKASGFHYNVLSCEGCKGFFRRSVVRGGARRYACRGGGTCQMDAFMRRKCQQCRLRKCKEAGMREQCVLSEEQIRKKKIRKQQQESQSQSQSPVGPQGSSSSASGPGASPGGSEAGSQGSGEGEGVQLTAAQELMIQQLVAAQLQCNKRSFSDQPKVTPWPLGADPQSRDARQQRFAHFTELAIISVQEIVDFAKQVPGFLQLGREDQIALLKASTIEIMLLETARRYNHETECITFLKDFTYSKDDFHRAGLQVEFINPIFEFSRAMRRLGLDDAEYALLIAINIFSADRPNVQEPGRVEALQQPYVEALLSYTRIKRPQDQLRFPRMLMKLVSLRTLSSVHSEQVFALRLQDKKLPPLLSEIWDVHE

| SMILES | IC50 (SREBP-2) [µM] | EC50 (LXRβ) [µM] |
| --- | --- | --- |
| C[C@H](CCC(=O)N(C)OCCN)[C@H]1CC[C@H]2[C@@H]3CC=C4C[C@@H](O)CC[C@]4(C)[C@H]3CC[C@]12C [Example 28, (R)—N-(2-aminoethoxy)-4-((3S,8S,9S,10R,13R,14S,17R)-3-hydroxy-10,13-dimethyl-2,3,4,7,8,9,10,11,12,13,14,15,16,17-tetradecahydro-1H-cyclopenta[a]phenanthren-17-yl)-N-methylpentanamide hydrochloride] | 0.25 to 1 | > 10 |
| C[C@H](CCC(=O)N1CCN(c2ccncn2)C[C@@H]1C)[C@H]1CC[C@H]2[C@@H]3CC=C4C[C@@H](O)CC[C@]4(C)[C@H]3CC[C@]12C [Example 588, (4R)-4-[(1R,3aS,3bS,7S,9aR,9bS,11aR)-7-hydroxy-9a,11a-dimethyl-1H,2H,3H,3aH,3bH,4H,6H,7H,8H,9H,9aH,9bH,10H,11H,11aH-cyclopenta[a]phenanthren-1-yl]-1-[(2S)-2-methyl-4-(pyrimidin-4-yl)piperazin-1-yl]pentan-1-one] | < 0.25 | > 10 |
| CC(C)OC(=O)N1CCN(C(=O)CC[C@@H](C)[C@H]2CC[C@H]3[C@@H]4CC=C5C[C@@H](O)CC[C@]5(C)[C@H]4CC[C@]23C)CC1 [Example 341, isopropyl4-((R)-4-((3S,8S,9S,10R,13R,14S,17R)-3-hydroxy-10,13-dimethyl-2,3,4,7,8,9,10,11,12,13,14,15,16,17-tetradecahydro-1H-cyclopenta[a]phenanthren-17-yl)pentanoyl)piperazine-1-carboxylate] | < 0.25 | > 10 |
| C[C@H](CCC(=O)N1CCN(C(=O)C2CCCC2)CC1)[C@H]1CC[C@H]2[C@@H]3CC=C4C[C@@H](O)CC[C@]4(C)[C@H]3CC[C@]12C [Example 515, (R)-1-(4-(cyclopentanecarbonyl)piperazin-1-yl)-4-((3S,8S,9S,10R,13R,14S,17R)-3-hydroxy-10,13-dimethyl-2,3,4,7,8,9,10,11,12,13,14,15,16,17-tetradecahydro-1H-cyclopenta[a]phenanthren-17-yl)pentan-1-one] | < 0.25 | > 10 |
| C[C@H](CCC(=O)N1CCN(C(=O)N(C)C)[C@@H](C)C1)[C@H]1CC[C@H]2[C@@H]3CC=C4C[C@@H](O)CC[C@]4(C)[C@H]3CC[C@]12C [Example 573, (2S)-4-[(4R)-4-[(1R,3aS,3bS,7S,9aR,9bS,11aR)-7-hydroxy-9a,11a-dimethyl-1H,2H,3H,3aH,3bH,4H,6H,7H,8H,9H,9aH,9bH,10H,11H,11aH-cyclopenta[a]phenanthren-1-yl]pentanoyl]-N,N,2-trimethylpiperazine-1-carboxamide] | < 0.25 | > 10 |
| C[C@H](CCc1cnsc1)[C@H]1CC[C@H]2[C@@H]3CC=C4C[C@@H](O)CC[C@]4(C)[C@H]3CC[C@]12C [Example 176, (3S,8S,9S,10R,13R,14S,17R)-17-((R)-4-(isothiazol-4-yl)butan-2-yl)-10,13-dimethyl-2,3,4,7,8,9,10,11,12,13,14,15,16,17-tetradecahydro-1H-cyclopenta[a]phenanthren-3-ol] | 0.25 to 1 | > 10 |
| COC(=O)N1CCN(C(=O)CC[C@@H](C)[C@H]2CC[C@H]3[C@@H]4CC=C5C[C@@H](O)CC[C@]5(C)[C@H]4CC[C@]23C)C[C@@H]1C [Example 566, Methyl (2S)-4-[(4R)-4-[(1R,3aS,3bS,7S,9aR,9bS,11aR)-7-hydroxy-9a,11a-dimethyl-1H,2H,3H,3aH,3bH,4H,6H,7H,8H,9H,9aH,9bH,10H,11H,11aH-cyclopenta[a]phenanthren-1-yl]pentanoyl]-2-methylpiperazine-1-carboxylate] | < 0.25 | > 10 |
| C[C@H](CCC(=O)N1CCC(S(=O)(=O)N(C)C)CC1)[C@H]1CC[C@H]2[C@@H]3CC=C4C[C@@H](O)CC[C@]4(C)[C@H]3CC[C@]12C [Example 290, 1-((R)-4-((3S,8S,9S,10R,13R,14S,17R)-3-hydroxy-10,13-dimethyl-2,3,4,7,8,9,10,11,12,13,14,15,16,17-tetradecahydro-1H-cyclopenta[a]phenanthren-17-yl)pentanoyl)-N,N-dimethylpiperidine-4-sulfonamide] | < 0.25 | > 10 |
| C[C@H](CCC(=O)N1CCN(C(=O)N(C)CC2CC2)[C@@H](C)C1)[C@H]1CC[C@H]2[C@@H]3CC=C4C[C@@H](O)CC[C@]4(C)[C@H]3CC[C@]12C [Example 636, (S)—N-(cyclopropylmethyl)-4-((R)-4-((3S,8S,9S,10R,13R,14S,17R)-3-hydroxy-10,13-dimethyl-2,3,4,7,8,9,10,11,12,13,14,15,16,17-tetradecahydro-1H-cyclopenta[a]phenanthren-17-yl)pentanoyl)-N,2-dimethylpiperazine-1-carboxamide] | < 0.25 | > 10 |
| C[C@H](OC(=O)C(=O)N1CCCCC1)[C@H]1CC[C@H]2[C@@H]3CC=C4C[C@@H](O)CC[C@]4(C)[C@H]3CC[C@]12C [Example 199, (1S)-1-[(1S,3aS,3bS,7S,9aR,9bS,11aS)-7-hydroxy-9a,11a-dimethyl-1H,2H,3H,3aH,3bH,4H,6H,7H,8H,9H,9aH,9bH,10H,11H,11aH-cyclopenta[a]phenanthren-1-yl]ethyl2-oxo-2-(piperidin-1-yl)acetate] | < 0.25 | 0.25 to 1 |
| COc1cccc(N2CCN(C(=O)CC[C@@H](C)[C@H]3CC[C@H]4[C@@H]5CC=C6C[C@@H](O)CC[C@]6(C)[C@H]5CC[C@]34C)CC2)n1 [Example 659, (R)-4-((3S,8S,9S,10R,13R,14S,17R)-3-hydroxy-10,13-dimethyl-2,3,4,7,8,9,10,11,12,13,14,15,16,17-tetradecahydro-1H-cyclopenta[a]phenanthren-17-yl)-1-(4-(6-methoxypyridin-2-yl)piperazin-1-yl)pentan-1-one] | < 0.25 | > 10 |
| C[C@H](CCC(=O)N(C)C)[C@H]1CC[C@H]2[C@@H]3CC=C4C[C@@](C)(O)CC[C@]4(C)[C@H]3CC[C@]12C [Example 120, (R)-4-((3S,8S,9S,10R,13R,14S,17R)-3-hydroxy-3,10,13-trimethyl-2,3,4,7,8,9,10,11,12,13,14,15,16,17-tetradecahydro-1H-cyclopenta [a]phenanthren-17-yl) -N,N-dimethylpentanamide] | 1 to 10 | > 10 |
| C[C@H](CCC(=O)N1CC[C@@H](Oc2ccncc2)[C@@H](C)C1)[C@H]1CC[C@H]2[C@@H]3CC=C4C[C@@H](O)CC[C@]4(C)[C@H]3CC[C@]12C [Example 572, (R)-4-((3S,8S,9S,10R,13R,14S,17R)-3-hydroxy-10,13-dimethyl-2,3,4,7,8,9,10,11,12,13,14,15,16,17-tetradecahydro-1H-cyclopenta[a]phenanthren-17-yl)-1-((3S,4R)-3-methyl-4-(pyridin-4-yloxy)piperidin-1-yl)pentan-1-one] | < 0.25 | > 10 |
| C[C@H](CCC(=O)N1CCN(C(=O)c2cnccn2)C[C@@H]1C)[C@H]1CC[C@H]2[C@@H]3CC=C4C[C@@H](O)CC[C@]4(C)[C@H]3CC[C@]12C [Example 581, (R)-4-((3S,8S,9S,10R,13R,14S,17R)-3-hydroxy-10,13-dimethyl-2,3,4,7,8,9,10,11,12,13,14,15,16,17-tetradecahydro-1H-cyclopenta[a]phenanthren-17-yl)-1-((S)-2-methyl-4-(pyrazine-2-carbonyl)piperazin-1-yl)pentan-1-one] | < 0.25 | > 10 |
| C[C@H](CCc1ncccc1C(F)(F)F)[C@H]1CC[C@H]2[C@@H]3CC=C4C[C@@H](O)CC[C@]4(C)[C@H]3CC[C@]12C [Example 185, (1R,3aS,3bS,7S,9aR,9bS,11aR)-9a,11a-dimethyl-1-[(2R)-4-[3-(trifluoromethyl)pyridin-2-yl]butan-2-yl]-1H,2H,3H,3aH,3bH,4H,6H,7H,8H,9H,9aH,9bH,10H,11H, 11 aH-cyclopenta[a]phenanthren-7-ol] | 0.25 to 1 | 1 to 10 |
| COc1cccc(CC[C@@H](C)[C@H]2CC[C@H]3[C@@H]4CC=C5C[C@@H](O)CC[C@]5(C)[C@H]4CC[C@]23C)n1 [Example 168, (3S,8S,9S,10R,13R,14S,17R)-17-((R)-4-(6-methoxypyridin-2-yl)butan-2-yl)-10,13-dim ethyl-2,3,4,7,8,9,10,11,12,13,14,15,16,17-tetradecahydro-1H-cyclopenta[a]phenanthren-3-ol] | 0.25 to 1 | > 10 |
| C[C@H](CCC(=O)N1CCOc2cccnc21)[C@H]1CC[C@H]2[C@@H]3CC=C4C[C@@H](O)CC[C@]4(C)[C@H]3CC[C@]12C [Example 626, (4R)-4-[(1R,3aS,3bS,7S,9aR,9bS,11aR)-7-hydroxy-9a,11a-dimethyl-1H,2H,3H,3aH,3bH,4H,6H,7H,8H,9H,9aH,9bH,10H,11H,11aH-cyclopenta[a]phenanthren-1-yl]-1-{2H,3H,4H-pyrido[3,2-b][1,4]oxazin-4-yl}pentan-1-one] | < 0.25 | 1 to 10 |
| CCOc1nccc(N2CCN(C(=O)CC[C@@H](C)[C@H]3CC[C@H]4[C@@H]5CC=C6C[C@@H](O)CC[C@]6(C)[C@H]5CC[C@]34C)CC2)n1 [Example 563, (R)-1-(4-(2-ethoxypyrimidin-4-yl)piperazin-1-yl)-4-((3S,8S,9S,10R,13R,14S,17R)-3-hydroxy-10,13-dimethyl-2,3,4,7,8,9,10,11,12,13,14,15,16,17-tetradecahydro-1H-cyclopenta[a]phenanthren-17-yl)pentan-1-one] | < 0.25 | > 10 |
| COCCN(C)C(=O)OC[C@@H](C)[C@H]1CC[C@H]2[C@@H]3CC=C4C[C@@H](O)CC[C@]4(C)[C@H]3CC[C@]12C [Example 349, (S)-2-((3S,8S,9S,10R,13S,14S,17R)-3-hydroxy-10,13-dimethyl-2,3,4,7,8,9,10,11,12,13,14,15,16,17-tetradecahydro-1H-cyclopenta[a]phenanthren-17-yl)propyl (2-methoxyethyl)(methyl)carbamate] | < 0.25 | > 10 |
